Reference: US8202910B2 (Sequella, Inc., priority 2006, dated 2012)
≈ marks a conversion by molar mass, not a printed value. Where two headings read alike, the source gives them in different places.

Key:
[1] = system: cells; test: LD50 for selectivity index (Table 10); format: cell-based, Mycobacterium tuberculosis
Description: Table 10 lists MIC and LD50 data for selected compounds. […] Table 11 lists MIC data for purified substituted ethylene diamines in comparison to ethambutol (EMB).

[2] = system: M. tuberculosis H37Rv; test: MIC by BACTEC 460; format: cell-based, Mycobacterium tuberculosis; conditions: Mycobacterium tuberculosis, H37RV; read-out: MIC (BACTEC)
[3] = format: in vitro ADME; conditions: 6 h
Description: Initially, analytical methods for determination of the compounds had been developed that allowed to carry out all the PK experiments, sec FIG. 29. Here is a brief description of the experiment: (1) plasma spiked with tested compounds and 10 uL of Terfenadine or plasma samples (200 uL) added; (2) ACN (2 mL) added to precipitate protein and spin at 2,500 rpm; (3) evaporate supernatant to dryness; (4) add 200 uL of the diluting solvent: methanol (with 0.1% of trifluoroacetic acid): ammonium acetate (80/20); (5) vortex, spin, and use supernatant; (6) run LC/MS/MS on Sciex API 3000.
Biostability studies of the compounds in plasma were carried out using concentrations 1 and 15 mg/ml. The compounds were incubated for 1, 2, 3 & 6 hr at 37° C. (Table 18).

[4] = molecular target: T1, melanocortin MC4 receptor (Homo sapiens, UniProt P32245); test: CEREP receptor binding, MC4; conditions: tested at 10 μM; read-out: inhibition of control specific binding
T1 construct: CEREP (contract testing)
T1 sequence (P32245 whole entry): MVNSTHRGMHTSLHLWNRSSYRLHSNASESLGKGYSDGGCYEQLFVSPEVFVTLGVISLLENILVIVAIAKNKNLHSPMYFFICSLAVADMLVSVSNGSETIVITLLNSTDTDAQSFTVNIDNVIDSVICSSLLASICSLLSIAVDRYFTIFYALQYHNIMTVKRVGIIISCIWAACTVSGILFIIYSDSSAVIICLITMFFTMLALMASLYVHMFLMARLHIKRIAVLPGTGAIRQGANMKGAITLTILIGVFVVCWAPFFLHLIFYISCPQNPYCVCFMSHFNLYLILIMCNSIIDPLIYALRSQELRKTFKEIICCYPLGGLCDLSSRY
Description: (§1) In vitro testing for safety pharmacology and early ADMET (Absorption, Distribution, Metabolism, Excretion, Toxicity) studies of compound 109 were contracted out to CEREP (15318 NE 95th Street, Redmond, Wash., 98052, USA www.cerep.com) under a service agreement and included evaluation of inhibitory binding to a panel of 27 standard receptors and three transporters (See FIG. 60 (Table 31) and FIG. 61 (Table 32)) which included: adenosine receptors (A1 and A2A), adrenergic receptors (alpha 1, alpha 2, beta 1), angiotensin II receptor (AT1), benzodiazapene receptor (BZD), bradykinin receptor (B2), cholecystokinin receptor (CCK1), dopamine receptors (D1, D2S), endothelin receptor (ETA), GABA receptor (GABA), glutamate receptor (NMDA), histamine receptor (H1 central), melanocortin receptor (MC4), muscarinic receptor (M, non-selective), neurokinin receptor (NK1), neuropeptide Y receptor (Y), nicotinic receptor (neuronal, alpha-BGTX-insensitive), opiate receptor (non-selective opiate), orphanin receptor (ORL1), phencyclidine receptor (PCP), serotonin receptor (5-HT), sigma receptor (sigma non-selective), steroid receptor (glucocorticoid receptor, GR), and NE, DA, and 5-HT transporters.
(§2) The specific ligand binding to the receptors is defined as the difference between the total binding and the nonspecific binding determined in the presence of an excess of unlabelled ligand.

[5] = system: opiate receptor (non-selective opiate); test: CEREP receptor binding, opiate; conditions: tested at 10 μM
Description: as §1, §2

[6] = molecular target: T2, Norepinephrine NE transporter (Homo sapiens, UniProt P23975); test: CEREP transporter binding, NE; conditions: tested at 10 μM; read-out: inhibition of control specific binding
T2 construct: CEREP (contract testing)
T2 sequence (P23975 whole entry): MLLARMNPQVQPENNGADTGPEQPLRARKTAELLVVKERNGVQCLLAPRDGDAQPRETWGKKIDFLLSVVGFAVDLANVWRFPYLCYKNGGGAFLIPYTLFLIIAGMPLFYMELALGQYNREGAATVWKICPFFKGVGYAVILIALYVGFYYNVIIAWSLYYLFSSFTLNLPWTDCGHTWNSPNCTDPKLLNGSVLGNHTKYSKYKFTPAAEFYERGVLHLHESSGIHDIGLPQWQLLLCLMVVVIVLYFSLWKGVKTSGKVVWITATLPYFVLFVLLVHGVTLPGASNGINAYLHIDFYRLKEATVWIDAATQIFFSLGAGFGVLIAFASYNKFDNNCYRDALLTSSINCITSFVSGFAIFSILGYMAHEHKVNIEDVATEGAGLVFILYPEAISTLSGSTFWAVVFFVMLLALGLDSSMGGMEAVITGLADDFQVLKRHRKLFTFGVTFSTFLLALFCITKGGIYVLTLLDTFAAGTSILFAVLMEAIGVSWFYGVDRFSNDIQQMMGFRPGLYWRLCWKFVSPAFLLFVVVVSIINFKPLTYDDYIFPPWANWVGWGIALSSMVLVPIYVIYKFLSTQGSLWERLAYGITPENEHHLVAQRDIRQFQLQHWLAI
Description: as §1, §2

[7] = molecular target: T3, Dopamine DA transporter (Homo sapiens, UniProt Q01959); test: CEREP transporter binding, DA; conditions: tested at 10 μM; read-out: inhibition of control specific binding
T3 construct: CEREP (contract testing)
T3 sequence (Q01959 whole entry): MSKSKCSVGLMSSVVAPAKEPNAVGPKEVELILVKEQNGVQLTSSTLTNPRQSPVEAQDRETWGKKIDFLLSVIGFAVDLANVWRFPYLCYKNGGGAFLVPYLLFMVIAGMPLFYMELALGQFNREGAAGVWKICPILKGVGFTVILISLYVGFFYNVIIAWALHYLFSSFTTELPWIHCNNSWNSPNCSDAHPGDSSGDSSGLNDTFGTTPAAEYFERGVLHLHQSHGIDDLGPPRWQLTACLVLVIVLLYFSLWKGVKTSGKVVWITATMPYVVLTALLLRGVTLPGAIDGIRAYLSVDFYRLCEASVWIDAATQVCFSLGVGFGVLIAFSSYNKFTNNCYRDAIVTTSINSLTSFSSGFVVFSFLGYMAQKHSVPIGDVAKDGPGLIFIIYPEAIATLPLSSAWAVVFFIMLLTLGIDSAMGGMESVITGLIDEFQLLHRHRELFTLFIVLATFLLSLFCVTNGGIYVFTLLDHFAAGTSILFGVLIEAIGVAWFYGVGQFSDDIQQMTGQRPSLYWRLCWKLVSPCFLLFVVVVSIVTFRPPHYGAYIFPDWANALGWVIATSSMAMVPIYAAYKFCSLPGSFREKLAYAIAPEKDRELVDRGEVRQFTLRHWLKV
Description: as §1, §2

[8] = molecular target: T4, Serotonin 5-HT transporter (Homo sapiens, UniProt P31645); test: CEREP transporter binding, 5-HT; conditions: tested at 10 μM; read-out: inhibition of control specific binding
T4 construct: CEREP (contract testing)
T4 sequence (P31645 whole entry): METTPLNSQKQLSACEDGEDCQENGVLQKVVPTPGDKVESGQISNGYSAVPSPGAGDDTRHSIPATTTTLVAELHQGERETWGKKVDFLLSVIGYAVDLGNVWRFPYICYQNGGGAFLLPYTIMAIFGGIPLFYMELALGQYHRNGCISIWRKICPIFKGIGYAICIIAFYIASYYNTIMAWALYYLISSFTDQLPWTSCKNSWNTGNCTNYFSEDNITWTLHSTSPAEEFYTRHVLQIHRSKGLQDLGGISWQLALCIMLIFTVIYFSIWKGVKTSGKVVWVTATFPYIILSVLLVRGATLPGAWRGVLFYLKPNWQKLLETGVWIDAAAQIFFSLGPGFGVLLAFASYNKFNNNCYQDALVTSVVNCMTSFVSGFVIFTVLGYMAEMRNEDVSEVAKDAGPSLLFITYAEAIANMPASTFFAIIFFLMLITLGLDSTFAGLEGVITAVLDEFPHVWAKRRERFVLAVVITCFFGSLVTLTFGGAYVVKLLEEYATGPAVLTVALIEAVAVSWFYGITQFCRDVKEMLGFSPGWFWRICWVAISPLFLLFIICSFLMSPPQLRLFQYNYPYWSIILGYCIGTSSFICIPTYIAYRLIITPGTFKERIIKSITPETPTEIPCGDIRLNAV
Description: as §1, §2

[9] = system: Haemophilus influenzae; test: Spectrum of activity MIC (NCCLS); format: cell-based; conditions: three isolates
Description: (§3) Compound 109 was tested against a representative panel of commonly encountered clinical microorganisms comprising opportunistic pathogens, target pathogens and normal human flora. The spectrum of activity of compound 109 was evaluated by performing antimicrobial susceptibility testing against a collection of aerobic and anaerobic bacteria, fungi, and mycobacteria. MICs for all organisms were established using the appropriate NCCLS (National Committee for Clinical Laboratory Standards) recommended standard methods and quality control strains.

[10] = system: Helicobacter pylori; test: Spectrum of activity MIC (NCCLS); format: cell-based; conditions: all three strains tested
Description: as §3

[11] = system: Staphylococci; test: Spectrum of activity MIC (NCCLS); format: cell-based; conditions: all Staphylococci tested
Description: as §3

[12] = system: Streptococcus pneumoniae; test: Spectrum of activity MIC (NCCLS); format: cell-based
Description: as §3

[13] = system: enterococci; test: Spectrum of activity MIC (NCCLS); format: cell-based; conditions: all species of enterococci tested
Description: as §3

[14] = system: Propionibacterium acnes, Bacteroides fragilis, and Clostridium difficile; test: Spectrum of activity MIC (NCCLS), anaerobes; format: cell-based
Description: as §3

[15] = system: Candida albicans; test: Spectrum of activity MIC, broth microdilution NCCLS M27-A2 (yeast); format: cell-based
Description: (§4) Compound 109 was tested against a representative panel of commonly encountered clinical microorganisms comprising opportunistic pathogens, target pathogens and normal human flora. The spectrum of activity of compound 109 was evaluated by performing recommended broth microdilution methods. NCCLS M27-A2, 2003 for yeast and NCCLS M38-A, 2003 for mold.

[16] = system: Aspergillus fumigatus; test: Spectrum of activity MIC, broth microdilution NCCLS M38-A (mold); format: cell-based; conditions: three isolates
Description: as §4

[17] = system: M. tuberculosis [MTB]; test: Spectrum of activity MIC, BACTEC 460 TB system; format: cell-based; conditions: Mycobacterium tuberculosis
[18] = system: RIF^R M. tuberculosis isolate 3185; test: microbe, parasite or virus in culture; format: cell-based
[19] = system: M. tuberculosis H37Rv (Pasteur); test: Rapid in vivo model of TB, body weight of infected mice; design: species or system C3H female mice
[20] = system: M. smegmatis; test: Spectrum (unpublished data); format: cell-based
[21] = system: M. avium; test: Spectrum (unpublished data); format: cell-based

CC(C)=CCC/C(C)=C/CNCCNC1C2CC3CC(C2)CC1C3 (centres unmarked) [Compound 109, N-Geranyl-N′-(2-adamanthyl)ethane-1,2-diamine]
SI (Selectivity Index) ([1]; LD50 : MIC): 16.39
LD50 ([1]; concentration at which 50% of the cells are killed): 32 µM
LD50 ([1]; from uM and MW): 14.4 µg/mL
MIC [2]: 0.32 µg/mL (≈ 0.968 µM)
Biostability in plasma (% ↓) ([3]; dog): 40% ↓
Biostability in plasma (% ↓) ([3]; human): 30% ↓
Biostability in plasma (% ↓) ([3]; mouse): stable
Biostability in plasma (% ↓) ([3]; rat): stable
inhibition at 10 µM [4]: 90%
inhibition of control specific binding [5]: 58%
inhibition at 10 µM [6]: 87%
inhibition at 10 µM [7]: 63%
inhibition at 10 µM [8]: 95%
MIC [9]: 1 to 32 µg/mL (≈ 3.03 to 96.8 µM)
MIC [10]: 4 µg/mL (≈ 12.1 µM)
MIC [11]: 16 to 32 µg/mL (≈ 48.4 to 96.8 µM)
MIC [12]: 4 to 8 µg/mL (≈ 12.1 to 24.2 µM)
MIC [13]: 16 to 64 µg/mL (≈ 48.4 to 194 µM)
MIC [14]: 16 to 64 µg/mL (≈ 48.4 to 194 µM)
MIC [15]: 4 to 8 µg/mL (≈ 12.1 to 24.2 µM)
MIC [16]: 16 µg/mL (≈ 48.4 µM)
MIC [17]: 0.25 to 0.5 µg/mL (≈ 0.756 to 1.51 µM)
MIC ([18]; Mycobacterium tuberculosis, read-out: MIC (BACTEC)): 0.32 µg/mL (≈ 0.968 µM)
MIC (BACTEC) ([18]; isolate 3185): 0.32 µg/mL (≈ 0.968 µM)
average body weight ([19]; SQ109 10 mg/kg + RIF 2 mg/kg orally, 6 mice, by the 3 wk, uninfected control 24.5 g, untreated 17 g): 24.3 grams
body weight of infected mice ([19]; SQ109 in combination with PZA (50 mg/kg)): slight improvement
body weight of infected mice ([19]; compound 109 (10 mg/kg) in combination with Rifampicin (2 mg/kg)): comparable to non-infected controls
body weight of infected mice ([19]; compound 109 (10 mg/kg) in combination with Rifampicin (2 mg/kg), listed as SQ109): fully prevented body weight loss
body weight of infected mice ([19]; compound 109 in combination with EMB (10 mg/kg)): closer to placebo treated controls
body weight of infected mice ([19]; compound 109 in combination with EMB (10 mg/kg), listed as SQ109): No effect
body weight of infected mice ([19]; compound 109 in combination with INH (1 mg/kg)): comparable to non-infected controls
body weight of infected mice ([19]; compound 109 in combination with INH (1 mg/kg), listed as SQ109): enhanced activity
body weight of infected mice ([19]; compound 109 in combination with Moxi (10 mg/kg)): closer to placebo treated controls
body weight of infected mice ([19]; compound 109 in combination with Moxi (10 mg/kg), listed as SQ109): antagonistic effect
average weight ([19]; single drug alone (SQ109 10 mg/kg; RIF 2 mg/kg), by the 3 wk): 21.3 g
body weight of infected mice ([19]; single drug alone (SQ109 10 mg/kg; Rifampin 2 mg/kg)): closer to placebo treated controls
activity [20]: much less active
activity [21]: much less active
